Results reported in ChEMBL document CHEMBL3044572, “Discovery of 2-(4-cyano-3-trifluoromethylphenyl amino)-4-(4-quinazolinyloxy)-6-piperazinyl(piperidinyl)-s-triazines as potential antibacterial agents” (2012).
≈ marks a conversion by molar mass, not a printed value. Calls of active or inactive are those of the source. The rule behind the calls is not given here.

How the values were obtained:
Proteus vulgaris [1] = assay: Antimicrobial activity against Proteus vulgaris MTCC 1771 by paper disk diffusion method; format: functional
Candida albicans [2] = assay: Antimicrobial activity against Candida albicans MTCC 183 by paper-disk diffusion method; format: functional
Proteus vulgaris [3] = assay: Antimicrobial activity against Proteus vulgaris MTCC 1771 by agar streak dilution method; format: functional
Staphylococcus aureus [4] = assay: Antimicrobial activity against Staphylococcus aureus MTCC 96 at 100 ug/ml by paper-disk diffusion method; format: functional, organism-based
Escherichia coli [5] = assay: Antimicrobial activity against Escherichia coli MTCC 739 at 100 ug/ml by paper-disk diffusion method; format: functional, organism-based
[6] = test system: Mycobacterium tuberculosis; assay: Antimicrobial activity against Mycobacterium tuberculosis H37Rv by BACTEC MGIT method; format: functional; conditions: Mycobacterium tuberculosis, H37Rv
Aspergillus niger [7] = assay: Antimicrobial activity against Aspergillus niger MTCC 282 at 100 ug/ml by paper-disk diffusion method; format: functional, organism-based
Salmonella typhi [8] = assay: Antimicrobial activity against Salmonella enterica subsp. enterica serovar Typhi MTCC 733 at 100 ug/ml by paper disk diffusion method; format: functional, organism-based
Bacillus cereus [9] = assay: Antimicrobial activity against Bacillus cereus MTCC 619 at 100 ug/ml by paper disk diffusion method; format: functional, organism-based
Aspergillus fumigatus [10] = assay: Antimicrobial activity against Aspergillus fumigatus MTCC 343 at 100 ug/ml by paper-disk diffusion method; format: functional, organism-based
Candida albicans [11] = assay: Antimicrobial activity against Candida albicans MTCC 183 by agar streak dilution method; format: functional
Pseudomonas aeruginosa [12] = assay: Antimicrobial activity against Pseudomonas aeruginosa MTCC 741 at 100 ug/ml by paper disk diffusion method; format: functional, organism-based
[13] = test system: Mycobacterium tuberculosis; assay: Antimicrobial activity against Mycobacterium tuberculosis H37Rv at 100 ug/ml by BACTEC MGIT method; format: functional, organism-based
[14] = test system: Mycobacterium tuberculosis; assay: Antimicrobial activity against Mycobacterium tuberculosis H37Rv by Lowenstein and Jensen method; format: functional; conditions: for MIC: Mycobacterium tuberculosis, H37Rv
Klebsiella pneumoniae [15] = assay: Antimicrobial activity against Klebsiella pneumoniae MTCC 109 at 100 ug/ml by paper disk diffusion method; format: functional, organism-based
Aspergillus clavatus [16] = assay: Antimicrobial activity against Aspergillus clavatus MTCC 1323 at 100 ug/ml by paper disk diffusion method; format: functional, organism-based
Shigella flexneri [17] = assay: Antimicrobial activity against Shigella flexneri MTCC 1457 at 100 ug/ml by paper-disk diffusion method; format: functional, organism-based
Shigella flexneri [18] = assay: Antimicrobial activity against Shigella flexneri MTCC 1457 by agar streak dilution method; format: functional
Proteus vulgaris [19] = assay: Antimicrobial activity against Proteus vulgaris MTCC 1771 at 100 ug/ml by paper disk diffusion method; format: functional, organism-based
Shigella flexneri [20] = assay: Antimicrobial activity against Shigella flexneri MTCC 1457 by paper disk diffusion method; format: functional
Candida albicans [21] = assay: Antimicrobial activity against Candida albicans MTCC 183 at 100 ug/ml by paper-disk diffusion method; format: functional, organism-based
Staphylococcus aureus [22] = assay: Antimicrobial activity against Staphylococcus aureus MTCC 96 by agar streak dilution method; format: functional
Staphylococcus aureus [23] = assay: Antimicrobial activity against Staphylococcus aureus MTCC 96 by paper-disk diffusion method; format: functional
Escherichia coli [24] = assay: Antimicrobial activity against Escherichia coli MTCC 739 by paper disk diffusion method; format: functional
Escherichia coli [25] = assay: Antimicrobial activity against Escherichia coli MTCC 739 by agar streak dilution method; format: functional
Salmonella typhi [26] = assay: Antimicrobial activity against Salmonella enterica subsp. enterica serovar Typhi MTCC 733 by paper disk diffusion method; format: functional
Salmonella typhi [27] = assay: Antimicrobial activity against Salmonella enterica subsp. enterica serovar Typhi MTCC 733 by agar streak dilution method; format: functional
Klebsiella pneumoniae [28] = assay: Antimicrobial activity against Klebsiella pneumoniae MTCC 109 by agar streak dilution method; format: functional
Klebsiella pneumoniae [29] = assay: Antimicrobial activity against Klebsiella pneumoniae MTCC 109 by paper disk diffusion method; format: functional
Bacillus cereus [30] = assay: Antimicrobial activity against Bacillus cereus MTCC 619 by agar streak dilution method; format: functional
Aspergillus clavatus [31] = assay: Antimicrobial activity against Aspergillus clavatus MTCC 1323 by paper disk diffusion method; format: functional
Pseudomonas aeruginosa [32] = assay: Antimicrobial activity against Pseudomonas aeruginosa MTCC 741 by agar streak dilution method; format: functional
Pseudomonas aeruginosa [33] = assay: Antimicrobial activity against Pseudomonas aeruginosa MTCC 741 by paper disk diffusion method; format: functional
Aspergillus niger [34] = assay: Antimicrobial activity against Aspergillus niger MTCC 282 by agar streak dilution method; format: functional
Aspergillus niger [35] = assay: Antimicrobial activity against Aspergillus niger MTCC 282 by paper-disk diffusion method; format: functional
Bacillus cereus [36] = assay: Antimicrobial activity against Bacillus cereus MTCC 619 by paper disk diffusion method; format: functional
Aspergillus clavatus [37] = assay: Antimicrobial activity against Aspergillus clavatus MTCC 1323 by agar streak dilution method; format: functional
Aspergillus fumigatus [38] = assay: Antimicrobial activity against Aspergillus fumigatus MTCC 343 by agar streak dilution method; format: functional
Aspergillus fumigatus [39] = assay: Antimicrobial activity against Aspergillus fumigatus MTCC 343 by paper-disk diffusion method; format: functional

Compound | inhibition zone (IZ) (Proteus vulgaris [1]) [mm] | inhibition zone (IZ) (Candida albicans [2]) [mm] | MIC (Proteus vulgaris [3]) [µg/mL] | inhibition zone (IZ) (Escherichia coli [5]) | MIC [6] [µg/mL] | inhibition zone (IZ) (Aspergillus niger [7]) | inhibition zone (IZ) (Bacillus cereus [9]) | inhibition zone (IZ) (Aspergillus fumigatus [10]) | MIC (Candida albicans [11]) [µg/mL] | inhibition zone (IZ) (Pseudomonas aeruginosa [12]) | inhibition [13] | inhibition (percent inhibition) [14] [%] | MIC [14] [µg/mL] | inhibition zone (IZ) (Klebsiella pneumoniae [15]) | inhibition zone (IZ) (Aspergillus clavatus [16]) | inhibition zone (IZ) (Shigella flexneri [17]) | MIC (Staphylococcus aureus [22]) [µg/mL] | inhibition zone (IZ) (Staphylococcus aureus [23]) [mm] | inhibition zone (IZ) (Salmonella typhi [26]) [mm] | MIC (Salmonella typhi [27]) [µg/mL] | further results
N#Cc1ccc(Nc2nc(Oc3ncnc4ccccc34)nc(N3CCN(c4ccccc4)CC3)n2)cc1C(F)(F)F | 23 | 19 | 50 (≈ 87.8 µM) | inactive | > 6.25 | inactive | inactive | inactive | 100 (≈ 176 µM) | inactive | inactive | 94 | 1000 (≈ 1760 µM) | inactive | inactive | inactive | – | – | – | – | inhibition zone (IZ) (Staphylococcus aureus [4]): inactive; inhibition zone (IZ) (Salmonella typhi [8]): inactive
CN1CCN(c2nc(Nc3ccc(C#N)c(C(F)(F)F)c3)nc(Oc3ncnc4ccccc34)n2)CC1 | – | – | – | inactive | > 6.25 | inactive | inactive | inactive | – | inactive | inactive | 95 | 250 (≈ 493 µM) | inactive | inactive | – | – | – | – | – | MIC (Shigella flexneri [18]): 100 µg/mL (≈ 197 µM); inhibition zone (IZ) (Proteus vulgaris [19]): inactive; inhibition zone (IZ) (Shigella flexneri [20]): 22 mm; inhibition zone (IZ) (Staphylococcus aureus [4]): inactive; inhibition zone (IZ) (Candida albicans [21]): inactive; inhibition zone (IZ) (Salmonella typhi [8]): inactive
CCN1CCN(c2nc(Nc3ccc(C#N)c(C(F)(F)F)c3)nc(Oc3ncnc4ccccc34)n2)CC1 | – | 21 | – | – | > 6.25 | inactive | inactive | inactive | 100 (≈ 192 µM) | inactive | inactive | 95 | 500 (≈ 959 µM) | – | inactive | inactive | 100 (≈ 192 µM) | 23 | 23 | 100 (≈ 192 µM) | inhibition zone (IZ) (Proteus vulgaris [19]): inactive; inhibition zone (IZ) (Escherichia coli [24]): 21 mm; MIC (Escherichia coli [25]): 100 µg/mL (≈ 192 µM); MIC (Klebsiella pneumoniae [28]): 100 µg/mL (≈ 192 µM); inhibition zone (IZ) (Klebsiella pneumoniae [29]): 19 mm
N#Cc1ccc(Nc2nc(Oc3ncnc4ccccc34)nc(N3CCN(c4ccccn4)CC3)n2)cc1C(F)(F)F | 21 | 21 | 100 (≈ 175 µM) | inactive | > 6.25 | – | – | inactive | 100 (≈ 175 µM) | – | inactive | 96 | 200 (≈ 351 µM) | inactive | – | inactive | 50 (≈ 87.6 µM) | 22 | 21 | 100 (≈ 175 µM) | MIC (Bacillus cereus [30]): 25 µg/mL (≈ 43.8 µM); inhibition zone (IZ) (Aspergillus clavatus [31]): 20 mm; MIC (Pseudomonas aeruginosa [32]): 100 µg/mL (≈ 175 µM); inhibition zone (IZ) (Pseudomonas aeruginosa [33]): 21 mm; MIC (Aspergillus niger [34]): 100 µg/mL (≈ 175 µM); inhibition zone (IZ) (Aspergillus niger [35]): 21 mm; inhibition zone (IZ) (Bacillus cereus [36]): 24 mm; MIC (Aspergillus clavatus [37]): 100 µg/mL (≈ 175 µM)
N#Cc1ccc(Nc2nc(Oc3ncnc4ccccc34)nc(N3CCCCC3)n2)cc1C(F)(F)F | 20 | 20 | 100 (≈ 203 µM) | inactive | > 6.25 | – | inactive | inactive | 100 (≈ 203 µM) | – | inactive | 94 | 500 (≈ 1020 µM) | inactive | inactive | inactive | 100 (≈ 203 µM) | 22 | 20 | 100 (≈ 203 µM) | MIC (Pseudomonas aeruginosa [32]): 100 µg/mL (≈ 203 µM); inhibition zone (IZ) (Pseudomonas aeruginosa [33]): 22 mm; MIC (Aspergillus niger [34]): 100 µg/mL (≈ 203 µM); inhibition zone (IZ) (Aspergillus niger [35]): 21 mm
N#Cc1ccc(Nc2nc(Oc3ncnc4ccccc34)nc(N3CCOCC3)n2)cc1C(F)(F)F | – | 20 | – | – | > 6.25 | – | – | – | 100 (≈ 202 µM) | – | inactive | 98 | 100 (≈ 202 µM) | inactive | inactive | inactive | 100 (≈ 202 µM) | 22 | 22 | 100 (≈ 202 µM) | inhibition zone (IZ) (Proteus vulgaris [19]): inactive; MIC (Bacillus cereus [30]): 100 µg/mL (≈ 202 µM); MIC (Aspergillus fumigatus [38]): 100 µg/mL (≈ 202 µM); MIC (Pseudomonas aeruginosa [32]): 100 µg/mL (≈ 202 µM); inhibition zone (IZ) (Pseudomonas aeruginosa [33]): 22 mm; inhibition zone (IZ) (Escherichia coli [24]): 21 mm; MIC (Aspergillus niger [34]): 100 µg/mL (≈ 202 µM); MIC (Escherichia coli [25]): 100 µg/mL (≈ 202 µM); inhibition zone (IZ) (Aspergillus niger [35]): 22 mm; inhibition zone (IZ) (Bacillus cereus [36]): 23 mm; inhibition zone (IZ) (Aspergillus fumigatus [39]): 21 mm
